According to patent publication US6350786B1, “Stable complexes of poorly soluble compounds in ionic polymers” (Hoffmann-La Roche Inc., priority 1998, dated 2002):

Assay: Solubility (aqueous / gastrointestinal fluids)
Type: physicochemical

- solubility in gastrointestinal fluids: practically insoluble
Compound: CCOC(=O)C(Cc1ccc(NC(=O)c2c(Cl)cccc2Cl)cc1)NC(=O)c1c(C)cccc1Cl (stereo not shown) [Compound II]
